The source of these data is patent US20110294881A1, “METHODS FOR TREATING LOWER URINARY TRACT DISORDERS USING alpha2delta SUBUNIT CALCIUM CHANNEL MODULATORS WITH SMOOTH MUSCLE MODULATORS” (EDUSA PHARMACEUTICALS, INC., priority 2003, published 2011).

Series [1] has as its system α2δ subunit of calcium channels. Conditions: Bryans et al. (1999) Med. Res. Rev. 19:149-177; cited from earlier work.
For series [2] the following is noted: preclinical and clinical studies; broad range of oral doses; cited from earlier work.
The subject of series [3] is SCI rats. Conditions: Cheng et al., 1995, Brain Res. 678:40-48; cited from earlier work.
Series [4] has as its system female rats, dilute acetic acid irritated bladder. The series is described as follows: Dilute acetic acid model, acute anesthetized rats: bladder capacity by cystometry. It is filed as in vivo, rat. Conditions: Example 1; for effectiveness of drug alone on bladder capacity: i.v.; for effective dose range of the drug in combination versus the drug alone (isobologram): individual animals, return to 31% of saline control, FIG. 4. As to the method:
(§1) Urethane anesthetized (1.2 g/kg) normal female rats were utilized in this study.
(§2) Animals were dosed by volume of injection=body weight in kg.
Animal Preparation: Female rats (250-300 g body weight) were anesthetized with urethane (1.2 g/kg) and a saline-filled catheter (PE-50) was inserted into the jugular vein for intravenous drug administration. […] The abdominal cavity was moistened with saline and closed by covering with a thin plastic sheet in order to maintain access to the bladder for emptying purposes. Fine silver or stainless steel wire electrodes were inserted into the external urethral sphincter (EUS) percutaneously for electromyography (EMG).
Following 30 minutes of AA infusion, 3 vehicle injections were made at 20 minute intervals to determine vehicle effects, if any.
P<0.050 was considered significant.
as §1, §2

Series [5] deals with female cats, dilute acetic acid irritated bladder. The series can be described thus: Dilute acetic acid model in cats: bladder capacity and voiding efficiency. It is filed as in vivo. Conditions: cat; 30 mg/kg dose alone.
Procedure: Alpha-chloralose anesthetized (50-100 mg/kg) normal female cats (2.5-3.5 kg; Harlan) were utilized in this study.
Female cats (2.5-3.5 kg; Harlan) had their food removed the night before the experiment. The following morning, the cat was anesthetized with isoflurane and prepped for surgery using aseptic technique. Polyethylene catheters were surgically placed to permit the measurement of bladder pressure, urethral pressure, arterial pressure, respiratory rate as well as for the delivery of drugs. Fine wire electrodes were implanted alongside the external urethral anal sphincter. Following surgery, the cats were slowly switched from the gas anesthetic isoflurane (2-3.5%) to alpha-chloralose (50-100 mg/kg). During control cystometry, saline was slowly infused into the bladder (0.5-1.0 ml/min) for 1 hour. The control cystometry was followed by 0.5% acetic acid in saline for the duration of the experiment. After assessing the cystometric variables under these baseline conditions, the effects of test drug(s) on micturition were determined via a 3-5 point dose response protocols.
For the purposes of assessing synergy using all of the data simultaneously, bladder capacity data for each animal were normalized to % Recovery from Irritation, and this index was used as the measure of efficacy. […]

On to `CC(C)C[C@H](CN)CC(=O)O` [Pregabalin, (S)-(3-aminomethyl)-5-methylhexanoic acid], for which, in series [1], the “binding affinity for the α2δ subunit of calcium channels relative to gabapentin” value was “even higher binding affinity”. On to `CC(OC(=O)NCC1(CC(=O)O)CCCCC1)OC(=O)C(C)C` (stereo not drawn) [XP13512], for which the “blood levels of gabapentin after oral prodrug” value in series [2] is “dose proportional blood levels of gabapentin”. With `COc1cc(CNC(=O)CCCC/C=C/C(C)C)ccc1O` [capsaicin], in series [3], the “bladder capacity to voiding” value is “not effect bladder capacity to voiding” and the bladder instability result is on record as “reduce bladder instability”.

With `NCC1(CC(=O)O)CCCCC1` [gabapentin, 1-(aminomethyl)cyclohexaneacetic acid], in series [4], the “effectiveness of drug alone on bladder capacity” value is listed as “modest effectiveness” and the “effective dose range of the drug in combination versus the drug alone (isobologram)” value was “significantly lower”. In addition, in series [5], the “effect on bladder capacity” value is “no significant effect”. `CCN(CC)CC#CCOC(=O)C(O)(c1ccccc1)C1CCCCC1` (stereo not drawn) [oxybutynin, 4-diethylaminio-2-butynyl phenylcyclohexyglycolate]: in series [4], the “effectiveness of drug alone on bladder capacity” value is “modest effectiveness” and the “effective dose range of the drug in combination versus the drug alone (isobologram)” value is given as “significantly lower”.
